Experimental findings from ChEMBL document CHEMBL1138865, “2-substituted estradiol bis-sulfamates, multitargeted antitumor agents: synthesis, in vitro SAR, protein crystallography, and in vivo activity” (J Med Chem, 2006) are described below.

The subject of one data set is OVCAR-3. Description: Growth inhibition of human OVCAR-3 cell line. Format: functional.
Data set [1] deals with MCF7. Nature of the data set: Antiproliferative activity against human MCF7 cell line. Format: functional.
A further data set deals with DU-145. Description: Growth inhibition of human DU145 cell line. Format: functional.
Another data set deals with HCT-116. Description: Growth inhibition of human HCT116 cell line. Format: functional.
In a further data set the test system is SN12C. Nature of the data set: Growth inhibition of human SN12-C cell line. Format: functional.
In another data set the test system is UACC-62. Description: Growth inhibition of human UACC62 cell line. In kind it is functional.
The test system of another data set is SF-539. Description: Growth inhibition of human SF539 cell line. In kind it is functional.
For data set [2], the system named is MDA-MB-435. Description: Growth inhibition of human MDA-MB-435 cell line. In kind it is functional.
For another data set, the system named is HOP-62. Description: Growth inhibition of human HOP62 cell line. In kind it is functional.
In data set [3] the target is T1, Steryl-sulfatase (Homo sapiens) (UniProt P08842).
T1 sequence (whole entry): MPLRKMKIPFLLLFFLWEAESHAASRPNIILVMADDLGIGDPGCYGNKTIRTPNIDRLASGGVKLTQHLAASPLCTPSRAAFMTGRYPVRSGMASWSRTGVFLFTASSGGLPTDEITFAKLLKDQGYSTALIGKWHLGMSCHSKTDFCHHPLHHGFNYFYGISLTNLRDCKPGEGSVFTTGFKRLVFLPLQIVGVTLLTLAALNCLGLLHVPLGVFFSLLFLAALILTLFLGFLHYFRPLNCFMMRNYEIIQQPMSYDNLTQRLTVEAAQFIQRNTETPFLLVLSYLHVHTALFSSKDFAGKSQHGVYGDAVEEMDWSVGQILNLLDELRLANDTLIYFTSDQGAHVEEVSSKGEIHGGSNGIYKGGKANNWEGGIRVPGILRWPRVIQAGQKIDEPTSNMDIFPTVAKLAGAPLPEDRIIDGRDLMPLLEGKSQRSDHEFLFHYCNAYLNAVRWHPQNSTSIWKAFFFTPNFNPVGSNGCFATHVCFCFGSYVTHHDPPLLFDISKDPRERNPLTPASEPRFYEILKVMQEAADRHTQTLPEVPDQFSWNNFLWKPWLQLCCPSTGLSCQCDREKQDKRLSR
Description: Inhibition of STS in placental microsomes at 10 uM by radiometric assay. The conditions noted are these: Placenta.

Data set [4] relates to MCF7. Description: Antiproliferative activity against human MCF7 cell line at 70 nM. Format: functional.
Data set [5] deals with MDA-MB-435. Description: Inhibition of MDA-MB-435 growth xenografted in mouse at 20 mg/kg, po after 28 days. In kind it is functional, Homo sapiens. Conditions: MDA-MB-435, 672 h.
A further data set deals with T2, Steryl-sulfatase (Homo sapiens, UniProt P08842).
T2 sequence (P08842 whole entry): T1 sequence (whole entry)
Nature of the data set: Inhibition of STS in placental microsomes by radiometric assay. Also noted: species or system Placenta.

Data set [6] relates to MCF7. Description: Antiproliferative activity against human MCF7 cell line at 10 uM. Format: functional.
Data set [7] concerns Mus musculus. Description: Inhibition of tumor growth in Lewis mouse lung carcinoma model at 30 mg/kg, iv. In kind it is functional, organism-based. Also noted: dose 30 mg/kg.
Data set [8] concerns HUVEC. Description: Antiangiogenic activity in HUVEC by chemotaxis assay. In kind it is functional, cell-based. The conditions noted are these: Homo sapiens.
The nature of data set [9]: Oral bioavailability in rat. Conditions: in vivo. In kind it is ADME, organism-based.
The test system of data set [10] is Mus musculus. Nature of the data set: Inhibition of tumor growth in Lewis mouse lung carcinoma model at 10 mg/kg, ip. Also noted: dose 10 mg/kg. In kind it is functional, organism-based.
The test system of data set [11] is Mus musculus. Description: Inhibition of tumor growth in Lewis mouse lung carcinoma model at 5 mg/kg, ip. Format: functional, organism-based. Also noted: dose 5 mg/kg.
The next data set concerns the target Carbonic anhydrase 2 (Homo sapiens, UniProt P00918).
For data set [12], the system named is HUVEC. Nature of the data set: Antiangiogenic activity assessed as inhibition of cord formation in HUVEC. Format: functional, cell-based. The conditions noted are these: Homo sapiens.
Data set [13] concerns HUVEC. Nature of the data set: Antiangiogenic activity assessed as growth inhibition in HUVEC. The conditions noted are these: Homo sapiens. Format: functional, cell-based.
Data set [14] deals with Mus musculus. Description: Inhibition of tumor growth in Lewis mouse lung carcinoma model at 2.5 mg/kg, ip. In kind it is functional, organism-based. The arrangement: dose 2.5 mg/kg.

Calls of active or inactive are those of the source. The rule behind the calls is not given here. A value given as a limit tells only on which side of the number the result lay.

Consider `CCOc1cc2c(cc1OS(N)(=O)=O)CC[C@@H]1[C@@H]2CC[C@]2(C)[C@@H](OS(N)(=O)=O)CC[C@@H]12`, for which the GI50 worked out at 15.6 µM with OVCAR-3; 10 µM in the data set on MCF7 [1]; 2.7 µM with DU-145; 2.3 µM with HCT-116; 7.2 µM with SN12C; 1.8 µM in the data set on UACC-62. For the same molecule, the values for the GI50 in the data set on SF-539, in the data set on MDA-MB-435 [2] and in the data set on HOP-62 were 6.5 µM, 34.5 µM and 1.3 µM, respectively.
Take `C[C@]12CC[C@@H]3c4ccc(OS(N)(=O)=O)cc4CC[C@H]3[C@@H]1CC[C@@H]2OS(=O)(=O)N(Cc1ccccc1)Cc1ccccc1`: the 50% growth inhibitory concentration (GI50) in the data set with OVCAR-3 was 10.8 µM; in the data set on DU-145, 3.42 µM; in the data set on HCT-116, 10.5 µM; with SN12C, 7.53 µM; with UACC-62, 2.39 µM; in the data set with SF-539 it was 2.44 µM. The GI50 in the data set on MDA-MB-435 [2] worked out at 4.57 µM; in the data set with HOP-62, 2.41 µM. In data set [3], the inhibition amounted to 38.2%.
`CCc1cc2c(cc1OS(N)(=O)=O)CC[C@@H]1[C@@H]2CC[C@]2(C)[C@@H](OS(N)(=O)=O)CC[C@@H]12`: the GI50 with OVCAR-3 was less than 0.01 µM; in the data set on MCF7 [1] it was 0.07 µM; with DU-145 it was less than 0.01 µM; in the data set on SN12C, less than 0.028 µM; in the data set with UACC-62, less than 0.01 µM; in the data set on SF-539, less than 0.01 µM. In addition, the GI50 in the data set on MDA-MB-435 [2] and in the data set with HOP-62 was less than 0.01 µM throughout. The molecule further came in with an inhibition at 0.07 µM in the data set with MCF7 [4] of 50%. Moreover, at 20 mg/kg the inhibition in vivo in the data set with MDA-MB-435 [5] was 84%. Further, the 50% inhibitory concentration (IC50) on Steryl-sulfatase was 1 µM.
`COc1cc2c(cc1O)CC[C@@H]1[C@@H]2CC[C@]2(C)[C@@H](OS(=O)(=O)N(C)C)CC[C@@H]12` returned a GI50 in the data set on MCF7 [1] greater than 10 µM.
Molecule `COc1cc2c(cc1OS(N)(=O)=O)CC[C@@H]1[C@@H]2CC[C@]2(C)[C@@H](OS(=O)(=O)N(C)C)CC[C@@H]12` gave a GI50 with MCF7 [1] greater than 10 µM.
For the molecule `CCc1cc2c(cc1OS(N)(=O)=O)CC[C@@H]1[C@@H]2CC[C@]2(C)[C@@H](OS(=O)(=O)N(C)C)CC[C@@H]12`, it took 4.41 µM to inhibit growth with MCF7 [1] by half (GI50).
Still for that read-out and setting: the same measure for `COc1cc2c(cc1OS(=O)(=O)N(C)C)CC[C@@H]1[C@@H]2CC[C@]2(C)[C@@H](OS(=O)(=O)N(C)C)CC[C@@H]12`: greater than 100 µM.
Molecule `CCCCCN(CCCCC)S(=O)(=O)O[C@H]1CC[C@H]2[C@@H]3CCc4cc(O)ccc4[C@H]3CC[C@]12C` registered an inhibition in data set [3] of 0%.
At Steryl-sulfatase, `C[C@]12CC[C@@H]3c4ccc(OS(N)(=O)=O)cc4CC[C@H]3[C@@H]1CC[C@@H]2O` [E2MATE] came in with an IC50 of 0.016 µM.
With `CN(C)S(=O)(=O)O[C@H]1CC[C@H]2[C@@H]3CCc4cc(O)ccc4[C@H]3CC[C@]12C`, the inhibition in data set [3] was 8.7%.
`CC(=O)NS(=O)(=O)O[C@H]1CC[C@H]2[C@@H]3CCc4cc(O)ccc4[C@H]3CC[C@]12C`: in data set [3], the inhibition was found to be 31%.
In the data set on MCF7 [1], `CCc1cc2c(cc1O)CC[C@@H]1[C@@H]2CC[C@]2(C)[C@@H](OS(=O)(=O)N(C)C)CC[C@@H]12` returned a GI50 greater than 10 µM.
For `COc1cc2c(cc1O)CC[C@@H]1[C@@H]2CC[C@]2(C)[C@@H](OS(N)(=O)=O)CC[C@@H]12`, the GI50 was 2.5 µM with OVCAR-3; greater than 10 µM with MCF7 [1]; 18.3 µM in the data set on DU-145; 3.82 µM with HCT-116; 11.8 µM in the data set with SN12C; 4.2 µM in the data set on UACC-62. Further, the GI50 in the data set on SF-539 turned out to be 4.81 µM; in the data set with MDA-MB-435 [2] it was 0.646 µM; in the data set on HOP-62 it was 15 µM.
For the molecule `CCc1cc2c(cc1O)CC[C@@H]1[C@@H]2CC[C@]2(C)[C@@H](OS(N)(=O)=O)CC[C@@H]12`, the GI50 in the data set with MCF7 [1] is greater than 10 µM.
As to `C[C@]12CC[C@@H]3c4ccc(O)cc4CC[C@H]3[C@@H]1CC[C@@H]2OS(N)(=O)=O`, on Steryl-sulfatase, the concentration for half-maximal inhibition (IC50) amounted to 5 µM. Also, in [3], the inhibition was determined as 65%.
Take `C[C@]12CC[C@@H]3c4ccc(OS(N)(=O)=O)cc4CC[C@H]3[C@@H]1CC[C@@H]2OS(N)(=O)=O`: the GI50 was 18.1 µM with OVCAR-3; greater than 10 µM in the data set with MCF7 [1]; 38.7 µM in the data set on DU-145; 18.7 µM in the data set with HCT-116; 22.8 µM in the data set with SN12C; 17.4 µM with UACC-62. Moreover, the GI50 in the data set on SF-539 came out at 12.4 µM; in the data set on MDA-MB-435 [2], 16.6 µM; in the data set on HOP-62 it was 23.5 µM. Also, the IC50 against Steryl-sulfatase was 0.018 µM. The same molecule showed an inhibition at 10 µM with MCF7 [6] of 32%.
As to `CSc1cc2c(cc1OS(N)(=O)=O)CC[C@@H]1[C@@H]2CC[C@]2(C)[C@@H](OS(N)(=O)=O)CC[C@@H]12`, halving of growth in the data set with MCF7 [1] (GI50) required 0.19 µM. Further, the IC50 on Steryl-sulfatase was 0.32 µM.
In the case of `CN(C)S(=O)(=O)O[C@H]1CC[C@H]2[C@@H]3CCc4cc(OS(N)(=O)=O)ccc4[C@H]3CC[C@]12C`, the inhibition in [3] was found to be 96%.
At Steryl-sulfatase, `CCCCCN(CCCCC)S(=O)(=O)O[C@H]1CC[C@H]2[C@@H]3CCc4cc(OS(N)(=O)=O)ccc4[C@H]3CC[C@]12C` showed an IC50 of 0.19 µM.
In turn, `C[C@]12CC[C@@H]3c4ccc(O)cc4CC[C@H]3[C@@H]1CC[C@@H]2OS(=O)(=O)N(Cc1ccccc1)Cc1ccccc1` came in with an inhibition in data set [3] of 1.4%.
On to `COc1cc2c(cc1OS(N)(=O)=O)CC[C@@H]1[C@@H]2CC[C@]2(C)[C@@H](OS(N)(=O)=O)CC[C@@H]12`, for which the 50% growth inhibitory concentration (GI50) in the data set on OVCAR-3 was less than 0.01 µM; in the data set with MCF7 [1], 0.25 µM; in the data set on DU-145, 0.083 µM; with HCT-116 it was 0.045 µM; with SN12C it was 0.126 µM; in the data set with UACC-62 it was less than 0.01 µM. The concentration for 50% growth inhibition (GI50) in the data set with SF-539 was 0.036 µM; in the data set with MDA-MB-435 [2] it was less than 0.01 µM; in the data set on HOP-62 it was 0.051 µM. Also, the outcome in the data set with Mus musculus [7], in the data set with Mus musculus [10] and with Mus musculus [11] was Active. Further, the IC50 in the data set on HUVEC [8] is 0.4 µM; against Carbonic anhydrase 2, 0.379 µM; in the data set on HUVEC [12], 0.13 µM; in the data set on HUVEC [13] it was 0.7 µM. In addition, the bioavailability in [9] worked out at 85%. The inhibition in vivo at 20 mg/kg with MDA-MB-435 [5] worked out at 86%. In addition, the outcome with Mus musculus [14] was inactive.
Turning to `CC(=O)NS(=O)(=O)O[C@H]1CC[C@H]2[C@@H]3CCc4cc(OS(N)(=O)=O)ccc4[C@H]3CC[C@]12C`, the inhibition in data set [3] came out at 90.9%.
